This note sets out measurements from ChEMBL document CHEMBL1134054, “p38 kinase inhibitors for the treatment of arthritis and osteoporosis: thienyl, furyl, and pyrrolyl ureas” (Bioorg Med Chem Lett, 2001).

The target of assay [1] is T1, Mitogen-activated protein kinase 14 (Homo sapiens, UniProt Q16539). Briefly: In vitro inhibition of mitogen-activated protein kinase p38 alpha 2 derived from Escherichia coli.
Assay [2] concerns the target T1, Mitogen-activated protein kinase 14. Nature of the assay: Percent inhibition determined in vitro against mitogen-activated protein kinase p38 alpha 2 derived from Escherichia coli at 5 uM.
The target is the same in assay [3]. Nature of the assay: Inhibition of Mitogen-activated protein kinase p38 alpha 2.
The subject of assay [4] is SW1353. Briefly: Inhibition of IL-6 production by SW1353 cells treated with both cytokines IL-1 and TNF-alpha. Type of assay: functional, cell-based. The conditions noted are these: Homo sapiens.
The target of assay [5] is T1, Mitogen-activated protein kinase 14. Nature of the assay: Inhibition of p38 alpha-2 kinase.

T1 sequence (Q16539 whole entry): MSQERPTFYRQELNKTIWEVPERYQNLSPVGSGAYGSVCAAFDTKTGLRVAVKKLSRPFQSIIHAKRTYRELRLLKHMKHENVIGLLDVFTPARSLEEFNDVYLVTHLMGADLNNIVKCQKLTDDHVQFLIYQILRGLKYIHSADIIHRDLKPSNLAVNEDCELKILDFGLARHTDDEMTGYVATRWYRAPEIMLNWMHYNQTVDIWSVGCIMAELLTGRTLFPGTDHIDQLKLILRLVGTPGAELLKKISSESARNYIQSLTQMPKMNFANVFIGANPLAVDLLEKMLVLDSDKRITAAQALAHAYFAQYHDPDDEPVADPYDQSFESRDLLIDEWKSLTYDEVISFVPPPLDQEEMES

What is called IC50 is the concentration that inhibits the measured activity by half. For orientation: inhibition means the drop in the measured response relative to a control, in per cent. A higher inhibition goes with strong suppression. As for `CCc1ccc(NC(=O)Nc2cc(C(C)(C)C)sc2C(=O)NC)cc1`, the IC50 in assay [1] worked out at 0.119 µM. The inhibition in assay [2] was determined as 70%.
In assay [3], `CCOC(=O)c1sc(C(C)(C)C)cc1NC(=O)Nc1ccc(C)cc1` came in with an IC50 of 3.02 µM.
`CNC(=O)c1[nH]c(C(C)(C)C)cc1NC(=O)Nc1cccc(Cl)c1Cl`: the values for the IC50 in assay [4] and in assay [1] were 0.016 µM and 0.044 µM, respectively. In assay [2], the inhibition worked out at 95%.
`COC(=O)COC(=O)c1sc(C(C)(C)C)cc1NC(=O)Nc1ccc(C)cc1` displayed an IC50 in assay [3] of 5.31 µM.
Take `COC(=O)c1sc(CCc2ccccc2)cc1NC(=O)Nc1ccc(C)cc1`: the inhibition in assay [2] came to 17%.
Take `COC(=O)c1c(NC(=O)Nc2cccc3ccccc23)cc(C(C)(C)C)n1C`: the IC50 in assay [1] turned out to be 0.253 µM. Besides, the inhibition in assay [2] was determined as 67%.
Taken in the same sequence, the figures for `CNC(=O)c1sc(C(C)(C)C)cc1NC(=O)Nc1ccc(C(C)C)cc1` were 0.27 µM and 63%.
As for `CNC(=O)c1[nH]c(C(C)(C)C)cc1NC(=O)Nc1cccc2ccccc12`, the IC50 in assay [4] stood at 0.035 µM; in assay [1], 0.028 µM. Further, the inhibition in assay [2] came to 96%.
The molecule `COC(=O)c1sc(CCC(C)C)cc1NC(=O)Nc1ccc(C)cc1` showed an inhibition in assay [2] of 8%.
`COC(=O)c1sc(N)cc1NC(=O)Nc1ccc(C)cc1` showed an IC50 in assay [3] of 0.441 µM. In assay [2], this molecule displayed an inhibition of 90%.
With `COC(=O)c1oc(C(C)(C)C)cc1NC(=O)Nc1cccc(Cl)c1Cl`, the IC50 in assay [1] is 0.032 µM. In assay [2], this molecule displayed an inhibition of 97%.
As to `COC(=O)c1c(NC(=O)Nc2ccccc2)cc(C(C)(C)C)n1C`, inhibition in assay [1] was half-maximal at 0.947 µM (IC50). In addition, the inhibition in assay [2] worked out at 32%.
Take `COC(=O)c1sc(C(C)C)cc1NC(=O)Nc1ccc(C)cc1`: in assay [2], the inhibition turned out to be 37%.
On the same count and under the same terms, the same measure for `COC(=O)c1sc(CC(C)C)cc1NC(=O)Nc1ccc(C)cc1`: 0%.
Turning to `Cc1ccc(NC(=O)Nc2cc(C(C)(C)C)sc2C(=O)OCCCO)cc1`, the IC50 in assay [3] stood at 0.056 µM.
On to `CCc1ccc(NC(=O)Nc2cc(C(C)(C)C)sc2C(=O)OC)cc1`, for which the IC50 in assay [1] came to 0.66 µM. This molecule gave an inhibition in assay [2] of 40%.
Consider `CNC(=O)c1sc(C(C)(C)C)cc1NC(=O)Nc1ccc(C)cc1`, for which the IC50 was 1.35 µM in assay [4] and 0.034 µM in assay [3].
Consider `CNC(=O)c1oc(C(C)(C)C)cc1NC(=O)Nc1ccc(C)cc1`, for which, in assay [1], the IC50 was 0.032 µM.
Molecule `COC(=O)c1sc(C(C)(C)C)cc1NC(=O)Nc1ccc(O)cc1` showed an IC50 in assay [1] of 0.61 µM. Further, in assay [2], the inhibition was 44%.
Taken in the same sequence, the figures for `COC(=O)c1[nH]c(C(C)(C)C)cc1NC(=O)Nc1ccccc1Cl` were 0.06 µM and 85%.
For the molecule `COC(=O)c1sc(C(C)(C)O)cc1NC(=O)Nc1ccc(C)cc1`, in assay [2], the inhibition is 34%.
Consider `COC(=O)c1oc(C(C)(C)C)cc1NC(=O)Nc1ccc(C)cc1`, for which the IC50 in assay [4] was 0.335 µM; in assay [1], 0.073 µM.
As to `Cc1ccc(NC(=O)Nc2cc(C(C)(C)C)sc2C(=O)OC(C)C)cc1`, the IC50 in assay [3] is 0.741 µM.
Turning to `COC(=O)c1sc(C(C)(C)C)cc1NC(=O)Nc1ccc([N+](=O)[O-])cc1`, in assay [2], the inhibition was 16%.
For `Cc1ccc(NC(=O)Nc2cc(C(C)(C)C)sc2C(=O)OCCO)cc1`, it took 0.057 µM to reach half-maximal inhibition in assay [3] (IC50).
As for `COC(=O)c1[nH]c(C(C)(C)C)cc1NC(=O)Nc1cccc(Cl)c1`, in assay [1], the IC50 worked out at 0.027 µM. In assay [2], this molecule came in with an inhibition of 95%.
As for `CCCOC(=O)c1sc(C(C)(C)C)cc1NC(=O)Nc1ccc(C)cc1`, the IC50 in assay [3] came to 0.482 µM.
In the case of `COC(=O)c1sc(-c2ccccc2)cc1NC(=O)Nc1ccc(C)cc1`, the inhibition in assay [2] was 0%.
On to `COC(=O)c1[nH]c(C(C)(C)C)cc1NC(=O)Nc1cccc(Cl)c1Cl`, for which the results for the IC50 in assay [4] and in assay [1] were 0.079 µM and 0.006 µM, respectively. The same molecule displayed an inhibition in assay [2] of 99%.
For the molecule `COC(=O)c1sc(C(C)(C)C)cc1NC(=O)Nc1ccc(OC)cc1`, in assay [2], the inhibition worked out at 8%.
As to `COC(=O)c1[nH]c(C(C)(C)C)cc1NC(=O)Nc1cccc2ccccc12`, the IC50 in assay [4] turned out to be 0.309 µM; in assay [1], 0.012 µM.
In assay [1], `COC(=O)c1sc(C(C)(C)C)cc1NC(=O)Nc1ccc(Cl)cc1` yielded an IC50 of 0.22 µM. The molecule further registered an inhibition in assay [2] of 76%.
In the same order, the values of `COC(=O)c1sc(C(C)(C)C)cc1NC(=O)Nc1ccccc1` are 0.29 µM and 68%.
As for `COC(=O)c1oc(C(C)(C)C)cc1NC(=O)Nc1ccc(F)cc1`, the IC50 in assay [1] turned out to be 0.21 µM. The same molecule yielded an inhibition in assay [2] of 67%.
In assay [1], `COC(=O)c1[nH]c(C(C)(C)C)cc1NC(=O)Nc1ccc(Cl)cc1` yielded an IC50 of 0.043 µM. This molecule also returned an inhibition in assay [2] of 92%.
Taken in the same sequence, the figures for `COC(=O)c1c(NC(=O)Nc2ccc(F)cc2)cc(C(C)(C)C)n1C` were 0.663 µM and 42%.
On to `COC(=O)c1sc(C(C)(C)C)cc1NC(=O)Nc1ccc(C(C)C)cc1`, for which the inhibition in assay [2] was 10%.
In assay [1], `COC(=O)c1[nH]c(C(C)(C)C)cc1NC(=O)Nc1ccccc1` came in with an IC50 of 0.044 µM.
In assay [1], `COC(=O)c1sc(C(C)(C)C)cc1NC(=O)Nc1ccc(N)cc1` registered an IC50 of 0.75 µM. Moreover, in assay [2], the inhibition stood at 40%.
Molecule `COC(=O)c1sc(C(C)(C)C)cc1NC(=O)Nc1ccc(C(C)=O)cc1` had an inhibition in assay [2] of 21%.
In assay [1], `COC(=O)c1sc(C(C)(C)C)cc1NC(=O)Nc1ccc(F)cc1` gave an IC50 of 0.83 µM. In assay [2], this molecule gave an inhibition of 35%.
`CNC(=O)c1[nH]c(C(C)(C)C)cc1NC(=O)Nc1ccc(C)cc1`: the IC50 in assay [4] is 0.015 µM; in assay [1], 0.067 µM.
With `COC(=O)c1c(NC(=O)Nc2cccc(Cl)c2Cl)cc(C(C)(C)C)n1C`, in assay [1], the midpoint of inhibition, the IC50, lay at 0.387 µM. The same molecule showed an inhibition in assay [2] of 50%.
On to `COC(=O)c1sc(C(C)(C)C)cc1NC(=O)Nc1ccc(-c2ccccc2)cc1`, for which the inhibition in assay [2] was determined as 6%.
Regarding `COC(=O)c1oc(C(C)(C)C)cc1NC(=O)Nc1ccc(Cl)c(Cl)c1`, in assay [1], the IC50 amounted to 1.2 µM.
In turn, `COC(=O)c1c(NC(=O)Nc2ccc(C)cc2)cc(C(C)(C)C)n1C` returned an IC50 in assay [1] of 0.4 µM.
In assay [1], `COC(=O)c1sc(C(C)(C)C)cc1NC(=O)Nc1cccc(Cl)c1Cl` yielded an IC50 of 0.18 µM. The molecule further yielded an inhibition in assay [2] of 79%.
For `COC(=O)c1sc(C(C)(C)C)cc1NC(=O)Nc1ccc(C)cc1`, the IC50 in assay [4] is 0.905 µM; in assay [5], 0.248 µM; in assay [3], 0.413 µM. For the same molecule, the inhibition in assay [2] is 94%.
Turning to `CNC(=O)c1sc(C(C)(C)C)cc1NC(=O)Nc1ccc(F)cc1`, the IC50 in assay [1] is 0.088 µM. Further, in assay [2], the inhibition stood at 80%.
`COCCOC(=O)c1sc(C(C)(C)C)cc1NC(=O)Nc1ccc(C)cc1` gave an IC50 in assay [3] of 0.464 µM.
Molecule `COC(=O)c1sc(C(C)(C)C)cc1NC(=O)Nc1ccc(NC(C)=O)cc1` showed an inhibition in assay [2] of 23%.
As to `COC(=O)c1[nH]c(C(C)(C)C)cc1NC(=O)Nc1ccc(C)cc1`, the IC50 in assay [4] is 1.14 µM; in assay [1], 0.033 µM.
Consider `COC(=O)c1[nH]c(C(C)(C)C)cc1NC(=O)Nc1ccc(F)cc1`, for which the figures for the IC50 in assay [4] and in assay [1] were 0.464 µM and 0.042 µM, respectively. Also, in assay [2], the inhibition was 89%.
In assay [2], `COC(=O)c1sc(C(C)(C)C)cc1NC(=O)Nc1ccc(C(=O)O)cc1` yielded an inhibition of 4%.
Same read-out and setting: the same measure for `COC(=O)c1sc([N+](=O)[O-])cc1NC(=O)Nc1ccc(C)cc1`: 0%.
